According to PubChem BioAssay (NCI):
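Protocol summary: plate cells (96-well), add compound at 5 concentrations, incubate 48 h, interpolate endpoints linearly. Abbreviation: GI50, concentration required for 50% inhibition of growth. At the TGI there is no net growth.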

How the values were obtained:
Test in all cases: NCI anticancer screen, dose series, 48 h
OVCAR-5 ovarian = tested on: OVCAR-5 ovarian
LOX IMVI melanoma = tested on: LOX IMVI melanoma
KM12 colon = tested on: KM12 colon
SW-620 colon = tested on: SW-620 colon
IGROV1 ovarian = tested on: IGROV1 ovarian
HT29 colon = tested on: HT29 colon
HCT-15 colon = tested on: HCT-15 colon
MDA-MB-231 breast = tested on: MDA-MB-231 breast
UO-31 renal = tested on: UO-31 renal
NCI-H226 lung = tested on: NCI-H226 lung
T-47D breast = tested on: T-47D breast
SN12C renal = tested on: SN12C renal
CCRF-CEM leukemia = tested on: CCRF-CEM leukemia
MCF7 breast = tested on: MCF7 breast
ACHN renal = tested on: ACHN renal
NCI-H460 lung = tested on: NCI-H460 lung
UACC-62 melanoma = tested on: UACC-62 melanoma
SF-268 CNS = tested on: SF-268 CNS
OVCAR-4 ovarian = tested on: OVCAR-4 ovarian
A498 renal = tested on: A498 renal
A549 NSCLC = tested on: A549 NSCLC
SF-295 CNS = tested on: SF-295 CNS
U251 CNS = tested on: U251 CNS
NCI/ADR-RES ovarian = tested on: NCI/ADR-RES ovarian
SR leukemia = tested on: SR leukemia
RXF 393 renal = tested on: RXF 393 renal
HCT-116 colon = tested on: HCT-116 colon
RPMI-8226 leukemia = tested on: RPMI-8226 leukemia
COLO 205 colon = tested on: COLO 205 colon
OVCAR-8 ovarian = tested on: OVCAR-8 ovarian
SNB-75 CNS = tested on: SNB-75 CNS
786-0 renal = tested on: 786-0 renal
BT-549 breast = tested on: BT-549 breast
HOP-92 NSCLC = tested on: HOP-92 NSCLC
UACC-257 melanoma = tested on: UACC-257 melanoma
TK-10 renal = tested on: TK-10 renal
HL-60(TB) leukemia = tested on: HL-60(TB) leukemia
HOP-62 NSCLC = tested on: HOP-62 NSCLC
NCI-H522 lung = tested on: NCI-H522 lung
SK-MEL-2 melanoma = tested on: SK-MEL-2 melanoma
NCI-H23 lung = tested on: NCI-H23 lung
PC-3 prostate = tested on: PC-3 prostate
HS 578T breast = tested on: HS 578T breast
SNB-19 CNS = tested on: SNB-19 CNS
SK-OV-3 ovarian = tested on: SK-OV-3 ovarian
CAKI-1 renal = tested on: CAKI-1 renal
M14 melanoma = tested on: M14 melanoma
MDA-MB-435 = tested on: MDA-MB-435
MALME-3M melanoma = tested on: MALME-3M melanoma
SK-MEL-28 melanoma = tested on: SK-MEL-28 melanoma
K-562 leukemia = tested on: K-562 leukemia
EKVX NSCLC = tested on: EKVX NSCLC
OVCAR-3 ovarian = tested on: OVCAR-3 ovarian
HCC-2998 colon = tested on: HCC-2998 colon
SK-MEL-5 melanoma = tested on: SK-MEL-5 melanoma
DU-145 prostate = tested on: DU-145 prostate
SF-539 CNS = tested on: SF-539 CNS

## COc1cc(OC)cc(Oc2nc3cc(N)cc(N)c3nc2-c2ccccc2)c1
OVCAR-5 ovarian
  GI50: 3.24 µM
  TGI: 16.4 µM
LOX IMVI melanoma
  GI50: 2.95 µM
  TGI: 13 µM
KM12 colon
  GI50: 1.03 µM
  TGI: 6.07 µM
SW-620 colon
  GI50: 2.26 µM
  TGI: 10.2 µM
IGROV1 ovarian
  GI50: 2.62 µM
  TGI: 12.3 µM
HT29 colon
  GI50: 4.37 µM
  TGI: 17.8 µM
HCT-15 colon
  GI50: 2.04 µM
  TGI: 12.4 µM
MDA-MB-231 breast
  GI50: 4.02 µM
  TGI: 21.8 µM
UO-31 renal
  TGI: 15.3 µM
NCI-H226 lung
  GI50: 6.55 µM
  TGI: 43 µM
T-47D breast
  GI50: 2.37 µM
  TGI: 9.13 µM
SN12C renal
  TGI: 22.3 µM
CCRF-CEM leukemia
  GI50: 1.97 µM
  TGI: 8.67 µM
MCF7 breast
  GI50: 1.69 µM
  TGI: 4.53 µM
ACHN renal
  TGI: 17.9 µM
NCI-H460 lung
  GI50: 2.92 µM
  TGI: 12.5 µM
UACC-62 melanoma
  GI50: 4.04 µM
  TGI: 18 µM
SF-268 CNS
  GI50: 1.75 µM
  TGI: 7.13 µM
OVCAR-4 ovarian
  GI50: 2.89 µM
  TGI: 16.2 µM
A498 renal
  TGI: 14.4 µM
A549 NSCLC
  GI50: 2.88 µM
  TGI: 13.2 µM
SF-295 CNS
  GI50: 2.21 µM
  TGI: 8.49 µM
U251 CNS
  GI50: 2.6 µM
  TGI: 10.8 µM
NCI/ADR-RES ovarian
  GI50: 1.13 µM
  TGI: 3.85 µM
SR leukemia
  GI50: 1.85 µM
  TGI: 28.9 µM
RXF 393 renal
  TGI: 4.41 µM
HCT-116 colon
  GI50: 2.36 µM
  TGI: 10.1 µM
RPMI-8226 leukemia
  TGI: 8.42 µM
COLO 205 colon
  GI50: 10.6 µM
  TGI: 22.4 µM
OVCAR-8 ovarian
  GI50: 2.9 µM
  TGI: 16.3 µM
SNB-75 CNS
  GI50: 0.127 µM
  TGI: 2.67 µM
786-0 renal
  TGI: 11.4 µM
BT-549 breast
  GI50: 1.49 µM
  TGI: 6.92 µM
HOP-92 NSCLC
  GI50: 1.36 µM
  TGI: 8.9 µM
UACC-257 melanoma
  GI50: 2.19 µM
  TGI: 12.3 µM
TK-10 renal
  TGI: 8.44 µM
HL-60(TB) leukemia
  GI50: 3.07 µM
  TGI: 25.9 µM
HOP-62 NSCLC
  GI50: 2.14 µM
  TGI: 12.8 µM
NCI-H522 lung
  GI50: 0.891 µM
  TGI: 4.31 µM
SK-MEL-2 melanoma
  GI50: 2.29 µM
  TGI: 10.2 µM
NCI-H23 lung
  GI50: 1.69 µM
  TGI: 12.7 µM
PC-3 prostate
  TGI: 17.4 µM
HS 578T breast
  GI50: 1.32 µM
  TGI: 4.19 µM
SNB-19 CNS
  GI50: 2.49 µM
  TGI: 12.5 µM
SK-OV-3 ovarian
  GI50: 3.49 µM
  TGI: 16.3 µM
CAKI-1 renal
  TGI: 24.1 µM
M14 melanoma
  GI50: 1.6 µM
  TGI: 7.76 µM
MDA-MB-435
  GI50: 0.392 µM
  TGI: 1.83 µM
MALME-3M melanoma
  GI50: 0.426 µM
  TGI: 5.09 µM
SK-MEL-28 melanoma
  GI50: 3.18 µM
  TGI: 15.5 µM
K-562 leukemia
  GI50: 3.77 µM
  TGI: 32.4 µM
EKVX NSCLC
  GI50: 3.77 µM
  TGI: 19.3 µM
OVCAR-3 ovarian
  GI50: 2.22 µM
  TGI: 8.65 µM
HCC-2998 colon
  GI50: 2.52 µM
  TGI: 13.7 µM
SK-MEL-5 melanoma
  GI50: 1.89 µM
  TGI: 6.47 µM
DU-145 prostate
  TGI: 25.1 µM

## O=C1/C(=C/c2cccc(O)c2)COc2ccccc21
OVCAR-5 ovarian
  TGI: 26.6 µM
LOX IMVI melanoma
  TGI: 3.92 µM
KM12 colon
  TGI: 7.09 µM
SW-620 colon
  TGI: 6.79 µM
IGROV1 ovarian
  TGI: 23.1 µM
HT29 colon
  TGI: 11.4 µM
HCT-15 colon
  TGI: 3.26 µM
MDA-MB-231 breast
  TGI: 21.4 µM
UO-31 renal
  TGI: 24.8 µM
NCI-H226 lung
  TGI: 32.4 µM
T-47D breast
  TGI: 21.1 µM
SN12C renal
  TGI: 19.8 µM
CCRF-CEM leukemia
  TGI: > 100 µM
MCF7 breast
  TGI: > 43.6 µM
ACHN renal
  TGI: 3.89 µM
NCI-H460 lung
  TGI: 54.6 µM
UACC-62 melanoma
  TGI: 9.81 µM
SF-268 CNS
  TGI: 40.8 µM
OVCAR-4 ovarian
  TGI: 21.8 µM
A498 renal
  TGI: 34.7 µM
A549 NSCLC
  TGI: 47.2 µM
SF-295 CNS
  TGI: 33.4 µM
U251 CNS
  TGI: 3.8 µM
NCI/ADR-RES ovarian
  TGI: 5.25 µM
SR leukemia
  TGI: > 100 µM
RXF 393 renal
  TGI: 29 µM
HCT-116 colon
  TGI: 3.32 µM
COLO 205 colon
  TGI: 31.6 µM
OVCAR-8 ovarian
  TGI: 24.4 µM
SNB-75 CNS
  TGI: 34.5 µM
786-0 renal
  TGI: 14.5 µM
BT-549 breast
  TGI: 49.5 µM
HOP-92 NSCLC
  TGI: > 55.6 µM
UACC-257 melanoma
  TGI: 7.29 µM
TK-10 renal
  TGI: 31.2 µM
HL-60(TB) leukemia
  TGI: 63.8 µM
HOP-62 NSCLC
  TGI: 28.4 µM
NCI-H522 lung
  TGI: 5.82 µM
SK-MEL-2 melanoma
  TGI: 34.6 µM
NCI-H23 lung
  TGI: 18.1 µM
PC-3 prostate
  TGI: > 53.8 µM
HS 578T breast
  TGI: 43.6 µM
SNB-19 CNS
  TGI: 21.8 µM
SK-OV-3 ovarian
  TGI: 46.3 µM
CAKI-1 renal
  TGI: 11.9 µM
M14 melanoma
  TGI: 13 µM
MDA-MB-435
  TGI: 17.2 µM
MALME-3M melanoma
  TGI: 26.3 µM
SK-MEL-28 melanoma
  TGI: 11.9 µM
K-562 leukemia
  TGI: > 33.2 µM
EKVX NSCLC
  TGI: 34 µM
OVCAR-3 ovarian
  TGI: 4.85 µM
HCC-2998 colon
  TGI: 1.48 µM
SK-MEL-5 melanoma
  TGI: 22.8 µM
DU-145 prostate
  TGI: 28.1 µM
SF-539 CNS
  TGI: 25.8 µM
